Marks after values point to notes of the source that are not given here. One block for each compound: values may come before it.
What was measured:
[1] = target: T1, DBH (Homo sapiens, UniProt P09172); test: in vitro DBH inhibition, conversion of tyramine to octopamine in the presence of DBH; assay type: biochemical; conditions: for percent inhibition: at 10⁻⁵ M compound concentration, IC₅₀ not determined
T1 sequence (P09172 1-617): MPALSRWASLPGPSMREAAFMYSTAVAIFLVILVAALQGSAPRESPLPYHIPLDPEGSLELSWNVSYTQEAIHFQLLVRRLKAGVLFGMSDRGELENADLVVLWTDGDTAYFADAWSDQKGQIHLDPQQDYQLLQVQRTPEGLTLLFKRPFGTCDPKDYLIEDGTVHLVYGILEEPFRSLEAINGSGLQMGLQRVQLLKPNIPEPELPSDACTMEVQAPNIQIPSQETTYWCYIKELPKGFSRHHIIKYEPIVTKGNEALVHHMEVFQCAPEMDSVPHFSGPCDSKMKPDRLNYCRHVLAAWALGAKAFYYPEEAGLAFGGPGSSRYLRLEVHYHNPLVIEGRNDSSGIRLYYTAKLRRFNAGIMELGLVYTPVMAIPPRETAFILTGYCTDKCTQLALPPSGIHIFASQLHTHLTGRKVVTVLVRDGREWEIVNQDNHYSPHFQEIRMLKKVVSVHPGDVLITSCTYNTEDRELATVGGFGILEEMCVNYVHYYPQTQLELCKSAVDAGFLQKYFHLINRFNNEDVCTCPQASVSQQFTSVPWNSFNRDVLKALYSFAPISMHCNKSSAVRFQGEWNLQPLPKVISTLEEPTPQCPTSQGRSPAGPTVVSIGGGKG
Method: Because the compounds of structure (I) inhibit DBH activity they have therapeutic value as diuretic, natriuretic, cardiotonic, antihypertensive, and vasodilatoragents, as well as antiulcerogenic and anti-Parkinson agents. Listed in Table I are the compounds of the invention that were tested for in vitro DBH inhibition by a standard procedure for assaying conversion of tyramine to octopamine in the presence of DBH. J.J. Pisano, et al., Biochim. Biophys. Acta, 43, 566-568 (1960). Octopamine was assayed following sodium periodate oxidation to p-hydroxy-benzaldehyde by measuring spectrophotometric absorbance at 330 nm. In Table I, inhibition is given in micromolar concentration of compound at which DBH activity was halved (IC₅₀). […]

[2] = test system: spontaneously hypertensive rats; test: mean arterial blood pressure in spontaneously hypertensive rats after oral dosing; assay type: in vivo; conditions: 50 mg/kg orally, compared to vehicle-treated controls
Method: Further, spontaneously hypertensive rats were treated with a suspension or solution of 1-(3,5-fluorobenzyl)-1,2,-dihydropyrimidine-2-thione hydrochloride at a dose of 50 mg/kg orally and mean arterial blood pressure was monitored for 260 minutes using indwelling cannulae in the tail arteries. […] Maximal blood pressure reduction was approximately 25 to 30 mm Hg.

[3] = literature, Teresawa et al., Japan Cir. J. 35, 339 (1971); cited from earlier work

IC50 ([1]; concentration of compound at which DBH activity was halved, read-out: DBH IC₅₀): 2800 nM
Compound: Cl.Fc1cc(F)cc(Cn2cccnc2=S)c1 [1-(3,5-Difluorobenzyl)-1,2-dihydropyrimidine 2-thione Hydrochloride]
time after treatment to significant blood pressure reductions [2]: ≤ 30 min

percent inhibition [1]: 15%^a
Compound: Cl.Fc1cccc(Cn2cccnc2=S)c1 [1-(3-Fluorobenzyl)-1,2-dihydropyrimidine 2-thione Hydrochloride]

percent inhibition [1]: 5%^a
Compound: S=c1ncccn1Cc1ccccc1 [1-benzyl-1,2-dihydropyrimidine-2-thione, 1-Benzyl-1,2-dihydropyrimidine-2 thione]

Compound: CCCCc1ccc(C(=O)O)nc1 [fusaric acid]
toxic effects [3]: hepatotoxic

Source: patent EP0323147A2, “1-Aralkyl-1,2-dihydropyrimidine-2-thiones” (SMITHKLINE BECKMAN CORPORATION, priority 1987, dated 1989)
